Laboratory results as given in patent publication US8158791B2, “Aza-substituted spiro derivatives” (MSD K.K., priority 2005, dated 2012).

What follows are molecules tested against T1, human histamine-H3 receptor (Homo sapiens, UniProt Q9Y5N1) (assay: Histamine analogue-binding inhibition test). Details: 50% inhibitory concentration to specific [3H]N-α-methylhistamine binding; membrane specimen of histamine-H3 receptor expression cells; 25° C., 2 hours, pH 7.4.
T1 construct: expressed in transfected cells; host or cells: HEK293 and CHO-K1 (membrane preparation)
T1 sequence (Q9Y5N1 whole entry): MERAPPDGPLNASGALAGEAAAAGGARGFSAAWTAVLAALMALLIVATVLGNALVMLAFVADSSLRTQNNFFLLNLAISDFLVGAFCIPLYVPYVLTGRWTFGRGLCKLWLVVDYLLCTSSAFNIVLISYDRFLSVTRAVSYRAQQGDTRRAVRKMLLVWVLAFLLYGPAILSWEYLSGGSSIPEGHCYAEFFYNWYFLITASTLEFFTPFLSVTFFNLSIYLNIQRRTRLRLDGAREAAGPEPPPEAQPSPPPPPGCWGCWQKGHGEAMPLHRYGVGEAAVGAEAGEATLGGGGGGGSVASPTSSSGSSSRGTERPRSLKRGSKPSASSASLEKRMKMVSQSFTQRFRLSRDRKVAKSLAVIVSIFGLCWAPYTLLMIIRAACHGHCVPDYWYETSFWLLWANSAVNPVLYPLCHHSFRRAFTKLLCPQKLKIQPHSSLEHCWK
Excerpt: A cDNA sequence coding for a human histamine-H3 receptor [see WO00/39164) was cloned with expression vectors pCR2.1, pEF1× (by Invitrogen) and pCI-neo (by Promega). The resulting expression vector was transfected into host cells, HEK293 and CHO-K1 (American Type Culture Collection), according to a cationic lipid process [see Proceedings of the National Academy of Sciences of the United States of America, Vol., 84, p. 7413 (1987)] to obtain histamine-H3 receptor expression cells.
A membrane specimen prepared from the cells having expressed a histamine-H3 receptor was incubated in an assay buffer (50 mM Tris buffer, pH 7.4) along with a test compound and 20,000 cpm [3H]N-α-methylhistamine (by NEN) therein, at 25° C. for 2 hours, and then filtered through a glass filter GF/C. After washed with 50 mM Tris buffer (pH 7.4), the radioactivity on the glass filter was determined. The non-specific binding was determined in the presence of 10 μM thioperamide (by SIGAM), and the 50% inhibitory concentration (IC50) of the test compound to the specific N-alpha-methylhistamine binding was calculated [see Molecular Pharmacology, Vol. 55, p. 1101 (1999)].

SMILES	IC50 [nM]
CN(CCN1CCCC1)C(=O)[C@H]1CC[C@@]2(CC1)OC(=O)c1ncccc12 [Example 3, Trans-3′-oxo-N-methyl-N-(2-pyrrolidin-1-ylethyl)-spiro[cyclohexane-1,1′-(3′H)-4′-azaisobenzofuran]-4-carboxamide]	0.72
COc1ccc2c(n1)C(=O)O[C@]21CC[C@H](C(=O)N(C)CCN2CCCCC2)CC1 [Example 11, Trans-5′-methoxy-3′-oxo-N-methyl-N-(2-piperidin-1-ylethyl)-spiro[cyclohexane-1,1′-(3′H)-4′-azaisobenzofuran]-4-carboxamide]	0.92
COc1ccc2c(n1)C(=O)O[C@]21CC[C@H](C(=O)N(C)CCN2CCCC2)CC1 [Example 13, Trans-5′-methoxy-3′-oxo-N-methyl-N-(2-pyrrolidin-1-ylethyl)-spiro[cyclohexane-1,1′-(3′H)-4′-azaisobenzofuran]-4-carboxamide]	0.92
CN(CCN1CCCC1)C(=O)[C@H]1CC[C@@]2(CC1)OC(=O)c1nc(N3CCCCC3)ccc12 [Example 17, Trans-5′-(piperidin-1-yl)-3′-oxo-N-methyl-N-(2-pyrrolidin-1-ylethyl)-spiro[cyclohexane-1,1′-(3′H)-4′-azaisobenzofuran]-4-carboxamide]	1.9
CN(CCN1CCCC1)C(=O)[C@H]1CC[C@@]2(CC1)OC(=O)c1nc(-c3ccccc3)ccc12 [Example 21, Trans-5′-phenyl-3′-oxo-N-methyl-N-(2-pyrrolidin-1-ylethyl)-spiro[cyclohexane-1,1′-(3′H)-4′-azaisobenzofuran]-4-carboxamide]	0.42
COc1nccc2c1C(=O)O[C@]21CC[C@H](C(=O)N(C)CCN2CCCCC2)CC1 [Example 34, Trans-4′-methoxy-3′-oxo-N-methyl-N-(2-piperidin-1-ylethyl)-spiro[cyclohexane-1,1′-(3′H)-5′-azaisobenzofuran]-4-carboxamide]	0.32
Cc1nccc2c1C(=O)O[C@]21CC[C@H](C(=O)N(C)CCN2CCCCC2)CC1 [Example 41, Trans-4′-methyl-3′-oxo-N-methyl-N-(2-piperidin-1-ylethyl)-spiro[cyclohexane-1,1′-(3′H)-5′-azaisobenzofuran]-4-carboxamide]	0.51
CN(CCN1CCCCC1)C(=O)[C@H]1CC[C@@]2(CC1)OC(=O)c1c(-c3cnn(C)c3)nccc12 [Example 45, Trans-4′-(1-methyl-1H-pyrazol-4-yl)-3′-oxo-N-methyl-N-(2-piperidin-1-ylethyl)-spiro[cyclohexane-1,1′-(3′H)-5′-azaisobenzofuran]-4-carboxamide]	0.14
CN(CCN1CCCCC1)C(=O)[C@H]1CC[C@@]2(CC1)OC(=O)c1nc(-c3cnccn3)ccc12 [Example 54, Trans-5′-pyrazinyl-3′-oxo-N-methyl-N-(2-piperidin-1-ylethyl)-spiro[cyclohexane-1,1′-(3′H)-4′-azisobenzofuran]-4-carboxamide]	0.07
